Laboratory results taken from patent US7880007B2, “Bicyclic substituted phenyl piperidine modulators of muscarinic receptors” (Vertex Pharmaceuticals Incorporated, priority 2004, dated 2011).

How the values were obtained:
Type in all cases: cell-based
[1] = target: T1, M4 muscarinic receptor (Homo sapiens, UniProt P08173); assay: Functional mobilization of intracellular calcium (FLIPR), M4-CHO cells; details: for Emax: 100% efficacy = maximum response obtained with the Carbachol control; for M4 Activity: M4-CHO cells, calcium mobilization (FLIPR)
T1 construct: expressed in transfected cells; host or cells: CHO (M4-CHO)
T1 sequence (P08173 1-479): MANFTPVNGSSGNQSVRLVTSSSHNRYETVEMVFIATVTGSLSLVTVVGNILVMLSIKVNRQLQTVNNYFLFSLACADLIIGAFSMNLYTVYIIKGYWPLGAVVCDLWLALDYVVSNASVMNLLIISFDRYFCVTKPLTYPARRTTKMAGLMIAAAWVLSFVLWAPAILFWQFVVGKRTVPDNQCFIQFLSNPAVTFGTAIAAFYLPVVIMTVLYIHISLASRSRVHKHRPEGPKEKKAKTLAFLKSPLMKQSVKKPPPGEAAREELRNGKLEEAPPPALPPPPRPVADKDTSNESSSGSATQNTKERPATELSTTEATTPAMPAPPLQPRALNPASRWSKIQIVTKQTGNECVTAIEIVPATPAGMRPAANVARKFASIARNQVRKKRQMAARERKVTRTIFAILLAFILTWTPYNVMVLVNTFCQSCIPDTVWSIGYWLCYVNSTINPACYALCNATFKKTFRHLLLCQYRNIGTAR
Experimental: (§1) Functional Mobilization of Intracellular Calcium to Determine Muscarinic Receptor Activity:
(§2) CHO cells expressing muscarinic receptors (M1 to M5) are grown as monolayers in tissue culture flasks at 37° C. in a humidified atmosphere containing 5% CO2 and passaged every 3-5 days. The growth media is Dulbecco's modified eagles medium (DMEM, Gibco Cat #12430-054), containing 25 mM Hepes and supplemented with Fetal Bovine Serum (Hyclone, cat #SH30071.03), 0.1 mM of MEM non-essential amino acids (GIBCO, Cat #11140-050), 1 mM MEM Sodium Pyruvate (GIBCO Cat #11360-070) and 100 units/ml of Penicillin G and 100 μg/ml of Streptomycin (GIBCO Cat #15140-122). The recombinant muscarinic receptor cell lines are grown under antibiotic pressure with media containing 25 μg/ml zeocin and 500 μg/ml G418 (M1-CHO), 4 μg/ml puromycin, 50 μg/ml zeocin and 2.5 μg/ml blasticidin (M2 and M4-CHO) or 50 μg/ml zeocin and 4 μg/ml puromycin (M3 and M5-CHO).
(§3) Cells are harvested at 80-90% confluence using Versene (GIBCO Cat #15040-066), collected by centrifugation and seeded 18-24 hrs prior to running the calcium assay at a density of 5,000-10,000 cells/well in […], clear-bottomed 384-well plates (BD Biocoat, poly-D-lysine, Cat #356663). The day of the experiment, the cells are washed with a plate washer (Bioteck Instruments, ELX 405) using bath 1 buffer (140-mM NaCl, 4.5-mM KCl, 2-mM CaCl2, 1-mM MgCl2, 10-mM Hepes-Na, 10-mM Glucose, pH 7.4, with NaOH) containing 1 mM Probenecid. Next, the calcium dye Fluo-3 (25 μl/well of Fluo-3 AM at 4 μM, Molecular Probes F-1241, in Bath 1 buffer containing 1 mM Probenecid) is added to the 25 μl of Bath 1 remaining in each well after the plate wash and the dye is loaded at 37° C. in the tissue culture incubator for 60-90 min. The fluorescent dye is removed using the plate washer with Bath 1 containing 1 mM Probenecid, leaving 25 μl/well of this solution after the wash. Alternatively, cells can be loaded with the calcium indicator from Molecular Devices (Calcium 3 Assay Reagents, Cat #R7181) adding 5 μl of a 5× solution dye in Bath 1 containing 1 mM Probenecid (10 ml per dye flask cat #R7182 to generate a solution 20×) to 20 μl of the same buffer. After loading for 60 min, the experiment can be run without having to remove the dye.
(§4) Compounds are prepared at a 2× fold concentration in a 96-well plate (round bottom, Costar Corning cat #3656), by reconstituting the pre-spotted compounds in bath 1 containing 1 mM probenecid. The final concentration DMSO is 0.5%, and the amount of DMSO is normalized across the assay plate. To determine an agonist action of the compounds on muscarinic receptors, the reconstituted compounds are added (25 μl compound/well) to the cell assay plate (containing 25 μl/well) using the multi-channel robotic system of the FLIPR 3 Instrument (Molecular Devices, Sunnyvale, Calif.). To determine a functional inhibitory action of the compounds on muscarinic receptors, the reconstituted compounds are added (25 μl compound/well) to the assay plate and pre-incubated for 15 min prior to adding 25 μl of Carbachol at 3× the EC80 for each muscarinic subtype. Alternatively, the compounds can be co-applied simultaneously with the agonist. In both assay modes, the fluorescence is recorded for 60 sec (excitation wavelength is […] and emission wavelength 540 nm) using the FLIPR 3 instrument.
(§5) The potency, efficacy and selectivity of the muscarinic compounds were evaluated by screening the compound activity across the whole family (M1 to M5 cells). Compounds were also screened for activity on other proteins such as other GPCRs and ion channels to determine selectivity on M4 receptors.
(§6) Examples of activities and efficacies of the muscarinic compounds of formulae (I, Ia, Ib, and II) on modulating M1, M2, M3 and M4 receptors are shown below in Table 3. […]

[2] = target: T2, M1 muscarinic receptor (Homo sapiens, UniProt P11229); assay: Functional mobilization of intracellular calcium (FLIPR), M1-CHO cells; details: for Emax: 100% efficacy = maximum response obtained with the Carbachol control; for M1 Activity: M1-CHO cells, calcium mobilization (FLIPR)
T2 construct: expressed in transfected cells; host or cells: CHO (M1-CHO)
T2 sequence (P11229 1-460): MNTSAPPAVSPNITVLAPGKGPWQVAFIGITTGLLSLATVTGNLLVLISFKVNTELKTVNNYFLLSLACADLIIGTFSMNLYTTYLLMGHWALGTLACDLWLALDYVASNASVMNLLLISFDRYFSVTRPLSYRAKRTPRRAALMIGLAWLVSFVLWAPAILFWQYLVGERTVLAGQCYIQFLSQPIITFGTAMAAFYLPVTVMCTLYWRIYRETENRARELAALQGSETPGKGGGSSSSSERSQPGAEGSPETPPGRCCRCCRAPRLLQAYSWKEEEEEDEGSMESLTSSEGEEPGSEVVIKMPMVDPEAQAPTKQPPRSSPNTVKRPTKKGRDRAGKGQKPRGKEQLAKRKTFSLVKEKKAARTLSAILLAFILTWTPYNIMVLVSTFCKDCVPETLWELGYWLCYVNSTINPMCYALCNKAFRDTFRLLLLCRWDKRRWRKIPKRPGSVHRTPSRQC
Experimental: as §1, §2, §3, §4, §5, §6

[3] = target: T3, M2 muscarinic receptor (Homo sapiens, UniProt P08172); assay: Functional mobilization of intracellular calcium (FLIPR), M2-CHO cells; details: for Emax: 100% efficacy = maximum response obtained with the Carbachol control; for M2 Activity: M2-CHO cells, calcium mobilization (FLIPR)
T3 construct: expressed in transfected cells; host or cells: CHO (M2-CHO)
T3 sequence (P08172 1-466): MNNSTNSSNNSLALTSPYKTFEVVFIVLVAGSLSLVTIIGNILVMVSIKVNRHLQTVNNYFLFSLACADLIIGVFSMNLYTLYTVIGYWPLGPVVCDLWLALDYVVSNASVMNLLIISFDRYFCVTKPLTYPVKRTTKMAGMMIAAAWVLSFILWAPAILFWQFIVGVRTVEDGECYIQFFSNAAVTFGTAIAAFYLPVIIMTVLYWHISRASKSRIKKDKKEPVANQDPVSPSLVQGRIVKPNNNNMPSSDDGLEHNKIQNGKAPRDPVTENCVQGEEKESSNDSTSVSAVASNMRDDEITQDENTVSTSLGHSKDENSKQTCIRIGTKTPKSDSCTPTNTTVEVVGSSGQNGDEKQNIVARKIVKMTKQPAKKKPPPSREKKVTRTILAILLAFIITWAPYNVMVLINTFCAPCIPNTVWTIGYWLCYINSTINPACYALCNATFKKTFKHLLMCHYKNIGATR
Experimental: as §1, §2, §3, §4, §5, §6

## CCOC(=O)N1C2CCC1CC(CN1CCC(c3ccccc3OC)CC1)C2 (stereo not drawn) [Compound 20]
[1]
  Emax: 25 to 100%
  M4 Activity: +++ (activity was measured to be less than 1.0 μM)
[2]
  Emax: 25 to 100%
  M1 Activity: +++ (activity was measured to be less than 1.0 μM)
[3]
  Emax: < 25%
  M2 Activity: + (activity was measured to be greater than 5.0 μM)

## COc1ccccc1C1CCN(CC2CC3CCC(C3)C2)CC1 (stereo not drawn) [Compound 28]
[1]
  Emax: < 25%
  M4 Activity: + (activity was measured to be greater than 5.0 μM)
[2]
  Emax: < 25%
  M1 Activity: + (activity was measured to be greater than 5.0 μM)
[3]
  Emax: < 25%
  M2 Activity: + (activity was measured to be greater than 5.0 μM)

## CCOC(=O)N1CCC(N2CCC(OC)(c3cc(Cl)ccc3OC)CC2)CC1 [Compound 55]
[1]
  Emax: 25 to 100%
  M4 Activity: +++ (activity was measured to be less than 1.0 μM)
[2]
  Emax: 25 to 100%
  M1 Activity: +++ (activity was measured to be less than 1.0 μM)
[3]
  Emax: < 25%
  M2 Activity: + (activity was measured to be greater than 5.0 μM)

## COc1ccccc1C1CCN(CC2CCC3CCC2C3)CC1 (stereo not drawn) [Compound 61]
[1]
  Emax: 25 to 100%
  M4 Activity: ++ (activity was measured to be from 1.0 μM to 5.0 μM)
[2]
  Emax: < 25%
  M1 Activity: + (activity was measured to be greater than 5.0 μM)
[3]
  Emax: < 25%
  M2 Activity: + (activity was measured to be greater than 5.0 μM)

## COc1ccc(Cl)cc1C1(O)CCN(C2CC3CCC2C3)CC1 (stereo not drawn) [Compound 63]
[1]
  Emax: 25 to 100%
  M4 Activity: + (activity was measured to be greater than 5.0 μM)
[2]
  Emax: < 25%
  M1 Activity: + (activity was measured to be greater than 5.0 μM)
[3]
  Emax: < 25%
  M2 Activity: + (activity was measured to be greater than 5.0 μM)

## COc1ccc(NC(C)=O)cc1C1CCN(C2C[C@H]3CC[C@H](C2)C3)CC1 (stereo partly drawn) [Compound 75]
[1]
  Emax: 25 to 100%
  M4 Activity: ++ (activity was measured to be from 1.0 μM to 5.0 μM)
[2]
  Emax: < 25%
  M1 Activity: + (activity was measured to be greater than 5.0 μM)
[3]
  Emax: < 25%
  M2 Activity: + (activity was measured to be greater than 5.0 μM)

## COc1ccc(Cl)cc1C1(OC)CCN(C2CCC3CCC2C3)CC1 (stereo not drawn) [Compound 80]
[1]
  Emax: 25 to 100%
  M4 Activity: +++ (activity was measured to be less than 1.0 μM)
[2]
  Emax: 25 to 100%
  M1 Activity: ++ (activity was measured to be from 1.0 μM to 5.0 μM)
[3]
  Emax: < 25%
  M2 Activity: ++ (activity was measured to be from 1.0 μM to 5.0 μM)

## Cc1ccc(F)cc1C1CCN([C@H]2CC[C@H]3CC[C@H]2C3)CC1 [Compound 81]
[1]
  Emax: 25 to 100%
  M4 Activity: ++ (activity was measured to be from 1.0 μM to 5.0 μM)
[2]
  Emax: 25 to 100%
  M1 Activity: + (activity was measured to be greater than 5.0 μM)
[3]
  Emax: 25 to 100%
  M2 Activity: + (activity was measured to be greater than 5.0 μM)

## COc1ccc(Cl)cc1C1CCN(CC2CCCCC2)CC1 [Compound 91]
[1]
  Emax: 25 to 100%
  M4 Activity: ++ (activity was measured to be from 1.0 μM to 5.0 μM)
[2]
  Emax: < 25%
  M1 Activity: ++ (activity was measured to be from 1.0 μM to 5.0 μM)
[3]
  Emax: < 25%
  M2 Activity: + (activity was measured to be greater than 5.0 μM)

## CCOC(=O)N1C2CCC1CC(N1CCC(O)(c3cc(F)ccc3C)CC1)C2 (stereo not drawn) [Compound 95]
[1]
  Emax: 25 to 100%
  M4 Activity: +++ (activity was measured to be less than 1.0 μM)
[2]
  Emax: 25 to 100%
  M1 Activity: +++ (activity was measured to be less than 1.0 μM)
[3]
  Emax: < 25%
  M2 Activity: + (activity was measured to be greater than 5.0 μM)

## Cc1ccc(Cl)cc1C1CCN(C2CC[C@H]3CC[C@H]2C3)CC1 (stereo partly drawn) [Compound 96]
[1]
  Emax: 25 to 100%
  M4 Activity: +++ (activity was measured to be less than 1.0 μM)
[2]
  Emax: 25 to 100%
  M1 Activity: +++ (activity was measured to be less than 1.0 μM)
[3]
  Emax: 25 to 100%
  M2 Activity: ++ (activity was measured to be from 1.0 μM to 5.0 μM)

## COc1ccc(Cl)cc1C1(O)CCN(C2CCCCC2)CC1 [Compound 99]
[1]
  Emax: 25 to 100%
  M4 Activity: ++ (activity was measured to be from 1.0 μM to 5.0 μM)
[2]
  Emax: < 25%
  M1 Activity: + (activity was measured to be greater than 5.0 μM)
[3]
  Emax: < 25%
  M2 Activity: + (activity was measured to be greater than 5.0 μM)

## COc1ccc(Cl)cc1C1(OC)CCN(C2CCCCCC2)CC1 [Compound 101]
[1]
  Emax: 25 to 100%
  M4 Activity: +++ (activity was measured to be less than 1.0 μM)
[2]
  Emax: 25 to 100%
  M1 Activity: ++ (activity was measured to be from 1.0 μM to 5.0 μM)
[3]
  Emax: < 25%
  M2 Activity: + (activity was measured to be greater than 5.0 μM)
